From patent US20130064955A1, “NATURAL SWEETENED COMPOSITIONS AND METHODS FOR PREPARING THE SAME” (priority 2011, published 2013)

Assays:
human sense of taste [1] = assay: Sugar-like taste quality enhancement of Stevia sweeteners by steviol glycoside additives, taste test by trained individual; format: in vivo; conditions: for Taste change of Stevia Sweetener REBA (303 ppm) with Steviol Glycoside Additive / Taste change of Stevia Sweetener JSS (380 ppm) with Steviol Glycoside Additive / Taste change of Stevia Sweetener REBD (303 ppm) with Steviol Glycoside Additive: additive at or below its sweetness recognition threshold concentration, 5% sucrose equivalence, water, room temperature; for Taste change of Stevia Sweetener REBA (303 ppm) with Steviol Glycoside Additive: 97% pure rebaudioside A 303 ppm; for Taste change of Stevia Sweetener REBD (303 ppm) with Steviol Glycoside Additive: rebaudioside D 303 ppm; for sugar-like taste quality enhancement effect: mostly in 5% SE rebaudioside A, compared with compound 1;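 on Taste change of Stevia Sweetener JSS (380 ppm) with Steviol Glycoside Additive: code −B means less bitterness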
Procedure: A steviol glycoside is added in an amount at or below sweetness recognition threshold concentration to a solution of water and a Stevia sweetener. The solution is maintained at room temperature. Each sample is taste tested by a trained individual, as described in Example 1, in duplicate. Preferably no more than ten steviol glycosides are tested per day to avoid taste fatigue. Each sample was taken at least 1.5 hours following eating or drinking
The Stevia sweeteners used in this study were 97% pure rebaudioside A, JSS, and rebaudioside D.
The steviol glycosides were used in at or below sweetness recognition threshold concentrations. […]

human sense of taste [2] = assay: Determination of sweetness recognition threshold concentration by trained taste tester; format: in vivo; conditions: in water at room temperature; for minimal effective concentration: Homo sapiens, read-out: Sweetness recognition threshold Level
Procedure: The term “sweetness recognition threshold concentration,” as generally used herein, is the lowest known concentration of a sweet compound that is perceivable by the human sense of taste. The sweetness recognition threshold level is specific for a particular compound, and varies based on temperature, matrix, ingredients and/or flavor system. The sweetness recognition threshold concentrations measurements and 5% sucrose equivalence measurements described herein were determined in water at room temperature.
A sip (approximately 2-5 mL) of control sample, including but not limited to water, was tasted and swallowed by a trained taste tester. After allowing a 15-25 second interval to pass, a second sip of the control is tasted and swallowed. The taste properties of the control are determined and recorded by the trained taste tester. An unknown sample is then tasted and swallowed in the same manner, allowing a 15-25 second interval between the two sips. Preferably no more than ten additives are tested per day to avoid taste fatigue. Each sample was taken at least 1.5 hours following eating or drinking The sweetness recognition thresholds concentration of 21 steviol glycosides were determined in this manner, and are shown in Table 1.

Row | Compound | Taste change of Stevia Sweetener REBA (303 ppm) with Steviol Glycoside Additive (human sense of taste [1]) | Taste change of Stevia Sweetener JSS (380 ppm) with Steviol Glycoside Additive (human sense of taste [1]) | Taste change of Stevia Sweetener REBD (303 ppm) with Steviol Glycoside Additive (human sense of taste [1]) | minimal effective concentration (human sense of taste [2]) [µg/mL] | sugar-like taste quality (human sense of taste [1]; additive at 250 ppm, rebaudioside A) | sugar-like taste quality enhancement effect (human sense of taste [1]) | bitterness (human sense of taste [1]; additive at 85 ppm, 5% SE JSS) | Sweetness recognition threshold Level (human sense of taste [2]) [ppm] | Sweetness recognition threshold Level (human sense of taste [2]; listed as mogroside V) | Sweetness recognition threshold Level (human sense of taste [2]; listed as rebaudioside D) | modulation of Stevia sweeteners (human sense of taste [1]; additive at 700 ppm, all Stevia sweeteners) | off-taste note (human sense of taste [1]; additive at 700 ppm, with Stevia sweeteners)
1 | C=C1C[C@@]23CC[C@H]4[C@@](C)(CCC[C@@]4(C)C(=O)O[C@@H]4O[C@H](CO)[C@@H](O)[C@H](O)[C@H]4O)[C@@H]2CC[C@]1(O[C@@H]1O[C@H](CO)[C@@H](O)[C@H](O)[C@H]1O)C3 [Rubusoside, rubusoside] | N(+) (N(+): same as “N” but slightly more;) | N (N: no difference in presence or absence of steviol glycoside additive;) | N (N: no difference in presence or absence of steviol glycoside additive;) | 50 |  |  |  |  |  |  |  | 
2 | C=C1C[C@@]23CC[C@H]4[C@@](C)(CCC[C@@]4(C)C(=O)O[C@@H]4O[C@H](CO)[C@@H](O)[C@H](O)[C@H]4O)[C@@H]2CC[C@]1(O[C@@H]1O[C@H](CO)[C@@H](O)[C@H](O)[C@H]1O[C@@H]1O[C@H](CO)[C@@H](O)[C@H](O)[C@H]1O)C3 [Stevioside, stevioside] | N (N: no difference in presence or absence of steviol glycoside additive;) |  | N (N: no difference in presence or absence of steviol glycoside additive;) | 25 |  |  |  |  |  |  |  | 
3 | C[C@@]12CCC[C@@](C)(C(=O)OC3OC(CO)C(O)C(O)C3O)[C@H]1CC[C@]13C=C(CO)[C@](OC4OC(CO)C(O)C(OC5OC(CO)C(O)C(O)C5O)C4OC4OC(CO)C(O)C(O)C4O)(CC[C@H]12)C3 (stereo partly shown) [Compound 5] | +, −B, W | N (N: no difference in presence or absence of steviol glycoside additive;) | N (N: no difference in presence or absence of steviol glycoside additive;) | 250 | improve the sugar-like taste quality of rebaudioside A | similar, but smaller positive sugar-like taste quality enhancement effect |  |  |  |  |  | 
4 | CC1=C[C@@]23CC[C@H]4[C@@](C)(CCC[C@@]4(C)C(=O)O)[C@@H]2CC[C@]1(OC1OC(CO)C(O)C(OC2OC(CO)C(O)C(O)C2O)C1OC1OC(CO)C(O)C(O)C1O)C3 (stereo partly shown) [Compound 2] | ++, −SL, −B | DB (DB: Different pattern of bitterness;) | N(+), W | 35 |  | similar, but smaller positive sugar-like taste quality enhancement effect |  |  |  |  |  | 
5 | C=C1C[C@@]23CC[C@H]4[C@@](C)(CCC[C@@]4(C)C(=O)OC4OC(C(=O)O)C(O)C(O)C4O)[C@@H]2CC[C@]1(O)C3 (stereo partly shown) [Steviol glucuronide, steviol glucoronide] | N (N: no difference in presence or absence of steviol glycoside additive;) | −B | N (N: no difference in presence or absence of steviol glycoside additive;) | 85 |  |  | less bitterness |  |  |  |  | 
6 | C[C@H](CC[C@@H](O[C@@H]1O[C@H](CO[C@@H]2O[C@H](CO)[C@@H](O)[C@H](O)[C@H]2O)[C@@H](O)[C@H](O)[C@H]1O[C@@H]1O[C@H](CO)[C@@H](O)[C@H](O)[C@H]1O)C(C)(C)O)[C@H]1CC[C@@]2(C)[C@@H]3CC=C4[C@@H](CC[C@H](O[C@@H]5O[C@H](CO[C@@H]6O[C@H](CO)[C@@H](O)[C@H](O)[C@H]6O)[C@@H](O)[C@H](O)[C@H]5O)C4(C)C)[C@]3(C)[C@H](O)C[C@]12C [Mogroside V, mogroside V] | N (N: no difference in presence or absence of steviol glycoside additive;) | N (N: no difference in presence or absence of steviol glycoside additive;) | ~+S (~+S: Slightly more detected sweetness intensity (~0.5% Sucrose Equivalence);) |  |  |  |  | 20 | about 15 ppm |  |  | 
7 | C=C1C[C@@]23CC[C@H]4[C@@](C)(CCC[C@@]4(C)C(=O)O[C@@H]4O[C@H](CO)[C@@H](O)[C@H](O)[C@H]4O[C@@H]4O[C@H](CO)[C@@H](O)[C@H](O)[C@H]4O)[C@@H]2CC[C@]1(O[C@@H]1O[C@H](CO)[C@@H](O)[C@H](O[C@@H]2O[C@H](CO)[C@@H](O)[C@H](O)[C@H]2O)[C@H]1O[C@@H]1O[C@H](CO)[C@@H](O)[C@H](O)[C@H]1O)C3 [Rebaudioside D, rebaudioside D] | N (N: no difference in presence or absence of steviol glycoside additive;) | N (N: no difference in presence or absence of steviol glycoside additive;) |  |  |  |  |  | 25 |  | about 25 ppm |  | 
8 | CC1=C[C@@]23CC[C@H]4[C@@](C)(CCC[C@@]4(C)C(=O)OC4OC(CO)C(O)C(O)C4O)[C@@H]2CC[C@]1(OC1OC(CO)C(O)C(OC2OC(CO)C(O)C(O)C2O)C1OC1OC(CO)C(O)C(O)C1O)C3 (stereo partly shown) [Compound 4] | N (N: no difference in presence or absence of steviol glycoside additive;) | N (N: no difference in presence or absence of steviol glycoside additive;) | N (N: no difference in presence or absence of steviol glycoside additive;) | 25 |  |  |  |  |  |  |  | 
9 | C=C1C[C@@]23CC[C@H]4[C@@](C)(CCC[C@@]4(C)C(=O)O[C@@H]4O[C@H](CO)[C@@H](O)[C@H](O)[C@H]4O)[C@@H]2CC[C@]1(O[C@@H]1O[C@H](CO)[C@@H](O)[C@H](O)[C@H]1O[C@@H]1O[C@@H](C)[C@H](O)[C@@H](O)[C@H]1O)C3 [Dulcoside A, dulcoside A] | N (N: no difference in presence or absence of steviol glycoside additive;) | N (N: no difference in presence or absence of steviol glycoside additive;) | N (N: no difference in presence or absence of steviol glycoside additive;) |  |  |  |  | 50 |  |  |  | 
10 | rebaudioside F | N (N: no difference in presence or absence of steviol glycoside additive;) | N (N: no difference in presence or absence of steviol glycoside additive;) | N (N: no difference in presence or absence of steviol glycoside additive;) |  |  |  |  | 25 |  |  |  | 
11 | C=C1C[C@@]23CC[C@H]4[C@@](C)(CCC[C@@]4(C)C(=O)O)[C@@H]2CC[C@]1(O[C@@H]1O[C@H](CO)[C@@H](O)[C@H](O)[C@H]1O[C@@H]1O[C@H](CO)[C@@H](O)[C@H](O)[C@H]1O)C3 [Steviolbioside, steviolbioside] | N (N: no difference in presence or absence of steviol glycoside additive;) | N (N: no difference in presence or absence of steviol glycoside additive;) | N (N: no difference in presence or absence of steviol glycoside additive;) |  |  |  |  | 50 |  |  |  | 
12 | C[C@@]12CCC[C@@](C)(C(=O)OC3OC(CO)C(O)C(O)C3O)[C@H]1CC[C@@]13C[C@@](OC4OC(CO)C(O)C(OC5OC(CO)C(O)C(O)C5O)C4OC4OC(CO)C(O)C(O)C4O)(CC[C@H]12)[C@](C)(O)C3 (stereo partly shown) [Compound 3] | +, −B, −SL, OF | −B, OF | +, −SL, OF | 700 |  | similar, but smaller positive sugar-like taste quality enhancement effect |  |  |  |  | positive modulation of all Stevia sweeteners | weak chemical-like note
